± gives the expanded uncertainty stated by the source.
Assay: cn = amount concentration of the nth substance listed, in mol/dm3
Settings: 101 kPa, Liquid, Advanced Conductivity Orion 162A

C[N+](C)(C)C.O=C([O-])C(F)(F)C(F)(F)C(F)(F)C(F)(F)C(F)(F)C(F)(F)C(F)(F)F [tetramethylammonium perfluorooctanoate] + O
Settings	electrical conductivity [S/m]
288.15 K, c1 = 0.001316	0.00725 ± 2e-05
288.15 K, c1 = 0.002597	0.0135 ± 3e-05
288.15 K, c1 = 0.003846	0.01958 ± 4e-05
288.15 K, c1 = 0.005063	0.0253 ± 5e-05
288.15 K, c1 = 0.00625	0.0306 ± 6e-05
288.15 K, c1 = 0.007407	0.0357 ± 7e-05
288.15 K, c1 = 0.008536	0.0405 ± 8e-05
288.15 K, c1 = 0.009638	0.0451 ± 9e-05
288.15 K, c1 = 0.01071	0.0494 ± 0.0001
288.15 K, c1 = 0.01176	0.0536 ± 0.00011
288.15 K, c1 = 0.01279	0.0574 ± 0.00011
288.15 K, c1 = 0.01379	0.0598 ± 0.00012
288.15 K, c1 = 0.01477	0.0611 ± 0.00012
288.15 K, c1 = 0.01573	0.0622 ± 0.00012
288.15 K, c1 = 0.01704	0.0637 ± 0.00013
288.15 K, c1 = 0.01848	0.0656 ± 0.00013
288.15 K, c1 = 0.02004	0.0675 ± 0.00014
288.15 K, c1 = 0.02171	0.0693 ± 0.00014
288.15 K, c1 = 0.02331	0.0714 ± 0.00014
288.15 K, c1 = 0.02485	0.0732 ± 0.00015
293.15 K, c1 = 0.001316	0.00808 ± 2e-05
293.15 K, c1 = 0.002597	0.01512 ± 3e-05
293.15 K, c1 = 0.003846	0.0218 ± 4e-05
293.15 K, c1 = 0.005063	0.0282 ± 6e-05
293.15 K, c1 = 0.00625	0.0341 ± 7e-05
293.15 K, c1 = 0.007407	0.0401 ± 8e-05
293.15 K, c1 = 0.008537	0.0455 ± 9e-05
293.15 K, c1 = 0.009638	0.0503 ± 0.0001
293.15 K, c1 = 0.01071	0.0551 ± 0.00011
293.15 K, c1 = 0.01176	0.0597 ± 0.00012
293.15 K, c1 = 0.01279	0.0634 ± 0.00013
293.15 K, c1 = 0.01379	0.0657 ± 0.00013
293.15 K, c1 = 0.01477	0.0675 ± 0.00014
293.15 K, c1 = 0.01573	0.0691 ± 0.00014
293.15 K, c1 = 0.01667	0.0706 ± 0.00014
293.15 K, c1 = 0.01803	0.0726 ± 0.00015
293.15 K, c1 = 0.01935	0.0745 ± 0.00015
293.15 K, c1 = 0.02063	0.0764 ± 0.00015
293.15 K, c1 = 0.02187	0.0781 ± 0.00016
293.15 K, c1 = 0.02347	0.0803 ± 0.00016
293.15 K, c1 = 0.025	0.0825 ± 0.00017
298.15 K, c1 = 0.001234	0.0087 ± 2e-05
298.15 K, c1 = 0.002439	0.01642 ± 3e-05
298.15 K, c1 = 0.003614	0.0236 ± 5e-05
298.15 K, c1 = 0.004762	0.0304 ± 6e-05
298.15 K, c1 = 0.005882	0.0371 ± 7e-05
298.15 K, c1 = 0.006977	0.0435 ± 9e-05
298.15 K, c1 = 0.008046	0.0498 ± 0.0001
298.15 K, c1 = 0.009091	0.0554 ± 0.00011
298.15 K, c1 = 0.01011	0.0612 ± 0.00012
298.15 K, c1 = 0.01111	0.0661 ± 0.00013
298.15 K, c1 = 0.01209	0.0713 ± 0.00014
298.15 K, c1 = 0.01304	0.0744 ± 0.00015
298.15 K, c1 = 0.01398	0.0766 ± 0.00015
298.15 K, c1 = 0.01489	0.0785 ± 0.00016
298.15 K, c1 = 0.01579	0.0801 ± 0.00016
298.15 K, c1 = 0.0171	0.0823 ± 0.00016
298.15 K, c1 = 0.01837	0.0844 ± 0.00017
298.15 K, c1 = 0.02	0.087 ± 0.00017
298.15 K, c1 = 0.02157	0.0895 ± 0.00018
298.15 K, c1 = 0.02308	0.092 ± 0.00018
298.15 K, c1 = 0.02453	0.0944 ± 0.00019
298.15 K, c1 = 0.02593	0.0968 ± 0.00019
303.15 K, c1 = 0.001316	0.00997 ± 2e-05
303.15 K, c1 = 0.002597	0.01874 ± 4e-05
303.15 K, c1 = 0.003846	0.0272 ± 5e-05
303.15 K, c1 = 0.005063	0.0352 ± 7e-05
303.15 K, c1 = 0.00625	0.0427 ± 9e-05
303.15 K, c1 = 0.007407	0.0498 ± 0.0001
303.15 K, c1 = 0.008537	0.0566 ± 0.00011
303.15 K, c1 = 0.009638	0.063 ± 0.00013
303.15 K, c1 = 0.01071	0.0691 ± 0.00014
303.15 K, c1 = 0.01176	0.0748 ± 0.00015
303.15 K, c1 = 0.01279	0.0795 ± 0.00016
303.15 K, c1 = 0.01379	0.0823 ± 0.00016
303.15 K, c1 = 0.01477	0.0844 ± 0.00017
303.15 K, c1 = 0.01573	0.0864 ± 0.00017
303.15 K, c1 = 0.01667	0.0884 ± 0.00018
303.15 K, c1 = 0.01803	0.0912 ± 0.00018
303.15 K, c1 = 0.01935	0.0938 ± 0.00019
303.15 K, c1 = 0.02063	0.0964 ± 0.00019
303.15 K, c1 = 0.02187	0.0988 ± 0.0002
303.15 K, c1 = 0.02347	0.1017 ± 0.0002
303.15 K, c1 = 0.025	0.1045 ± 0.00021
308.15 K, c1 = 0.001316	0.01109 ± 2e-05
308.15 K, c1 = 0.002597	0.0209 ± 4e-05
308.15 K, c1 = 0.003846	0.0302 ± 6e-05
308.15 K, c1 = 0.005063	0.0388 ± 8e-05
308.15 K, c1 = 0.00625	0.0475 ± 0.0001
308.15 K, c1 = 0.007407	0.0554 ± 0.00011
308.15 K, c1 = 0.008536	0.0626 ± 0.00013
308.15 K, c1 = 0.009638	0.07 ± 0.00014
308.15 K, c1 = 0.01071	0.077 ± 0.00015
308.15 K, c1 = 0.01176	0.0828 ± 0.00017
308.15 K, c1 = 0.01279	0.0888 ± 0.00018
308.15 K, c1 = 0.01379	0.0918 ± 0.00018
308.15 K, c1 = 0.01477	0.095 ± 0.00019
308.15 K, c1 = 0.01573	0.0969 ± 0.00019
308.15 K, c1 = 0.01667	0.0996 ± 0.0002
308.15 K, c1 = 0.01758	0.101 ± 0.0002
308.15 K, c1 = 0.01848	0.1029 ± 0.00021
308.15 K, c1 = 0.02021	0.1067 ± 0.00021
308.15 K, c1 = 0.02188	0.1102 ± 0.00022
308.15 K, c1 = 0.02347	0.1136 ± 0.00023
308.15 K, c1 = 0.025	0.1168 ± 0.00023
308.15 K, c1 = 0.02647	0.1208 ± 0.00024
313.15 K, c1 = 0.001316	0.01241 ± 3e-05
313.15 K, c1 = 0.002597	0.0231 ± 5e-05
313.15 K, c1 = 0.003846	0.0333 ± 7e-05
313.15 K, c1 = 0.005063	0.0428 ± 9e-05
313.15 K, c1 = 0.00625	0.0521 ± 0.0001
313.15 K, c1 = 0.007407	0.0608 ± 0.00012
313.15 K, c1 = 0.008537	0.0687 ± 0.00014
313.15 K, c1 = 0.009638	0.0765 ± 0.00015
313.15 K, c1 = 0.01071	0.0841 ± 0.00017
313.15 K, c1 = 0.01176	0.0905 ± 0.00018
313.15 K, c1 = 0.01279	0.0971 ± 0.00019
313.15 K, c1 = 0.01379	0.1009 ± 0.0002
313.15 K, c1 = 0.01477	0.1039 ± 0.00021
313.15 K, c1 = 0.01573	0.1067 ± 0.00021
313.15 K, c1 = 0.01667	0.1091 ± 0.00022
313.15 K, c1 = 0.01803	0.1125 ± 0.00023
313.15 K, c1 = 0.01935	0.1158 ± 0.00023
313.15 K, c1 = 0.02063	0.119 ± 0.00024
313.15 K, c1 = 0.02187	0.122 ± 0.00024
313.15 K, c1 = 0.02347	0.1258 ± 0.00025
313.15 K, c1 = 0.025	0.1294 ± 0.00026
318.15 K, c1 = 0.001316	0.01322 ± 3e-05
318.15 K, c1 = 0.002597	0.0253 ± 5e-05
318.15 K, c1 = 0.003846	0.0367 ± 7e-05
318.15 K, c1 = 0.005063	0.0466 ± 9e-05
318.15 K, c1 = 0.00625	0.0564 ± 0.00011
318.15 K, c1 = 0.007407	0.0659 ± 0.00013
318.15 K, c1 = 0.008536	0.0745 ± 0.00015
318.15 K, c1 = 0.009638	0.0838 ± 0.00017
318.15 K, c1 = 0.01071	0.0921 ± 0.00018
318.15 K, c1 = 0.01176	0.0993 ± 0.0002
318.15 K, c1 = 0.01279	0.1064 ± 0.00021
318.15 K, c1 = 0.01379	0.1119 ± 0.00022
318.15 K, c1 = 0.01477	0.1156 ± 0.00023
318.15 K, c1 = 0.01573	0.1188 ± 0.00024
318.15 K, c1 = 0.01667	0.1218 ± 0.00024
318.15 K, c1 = 0.01803	0.1263 ± 0.00025
318.15 K, c1 = 0.01935	0.1307 ± 0.00026
318.15 K, c1 = 0.02105	0.1349 ± 0.00027
318.15 K, c1 = 0.02268	0.14 ± 0.00028
318.15 K, c1 = 0.02424	0.1434 ± 0.00029
318.15 K, c1 = 0.02574	0.1473 ± 0.00029
